# Measurements taken from patent publication US20110318768A1, “METHOD FOR DETERMINING SENSITIVITY OF TUMOR CELLS TO TYROSINE KINASE INHIBITOR AND COMPUTER PROGRAM PRODUCT” (SYSMEX CORPORATION, priority 2010, published 2011).
# Assays:
# Test in all cases: Tyrosine kinase activity inhibition rate in cell membrane fraction (Poly-Glu4-Tyr substrate)
# Assay type in all cases: biochemical
# [1] = tested on: tyrosine kinase in cell membrane fraction of UACC812; conditions: for Inhibition rate: UACC812, 25 μM kinase inhibitor, 25 μM ATP
# Protocol: (§1) Breast cancer cell lines shown in Table 3 were cultured in a 150 mm dish so as to be about 80% confluent, the cells were recovered using PBS and a scraper, and a cell pellet was obtained by centrifugal operation (900×g, for 5 minutes, at 4° C.). The pellet was frozen with liquid nitrogen and stored at −80° C. until preparation of the measurement sample.
# (§2) 500 μl of NP40 (−) solubilized buffer (20 mM HEPES (pH 7.4)), (w/v) % glycerol, 0.2% protease inhibitor cocktail (#P8340: Sigma-Aldrich (product composition: 104 mM AEBSF, 80 μM aprotinin, 4 mM bestatin, 1.4 mM E-64, 2 mM leupeptin, 1.5 mM Pepstatin A), 50 mM NaF and 200 μM Na3VO4) was added to the cell pellet, followed by stirring for 2 seconds three times using a vortex mixer. After being allowed to stand for 10 minutes, the soluble fraction was removed by centrifugal operation (at 20000×g, for 30 minutes, at 4° C.). The obtained pellet was resuspended in 500 μl of NP40 (−) solubilized buffer, the soluble fraction was again removed by centrifugal operation (at 20000×g, for 20 minutes, at 4° C.), and the pellet was washed. The pellet was resuspended by adding 500 μl of NP40 (+) solubilized buffer (a buffer prepared by adding NP-40 to the NP40 (−) solubilized buffer at a final concentration of 1%) to the pellet, pipetting fifty times, and vortexing for 2 seconds three times. After being allowed to stand for 10 minutes, a cell membrane fraction containing a membrane protein was obtained by centrifugal operation (at 20000×g, for 40 minutes, at 4° C.). The protein concentration of the fraction was measured by DC protein assay (#500-0116 JA: Bio-Rad) and the fraction was used as a sample for kinase activity measurement. The sample was frozen with liquid nitrogen and stored at −80° C. until used for the following kinase activity measurement.
# (§3) NeutrAvidin Coated Plates (HBC) (96 white plate; #15509: Pierce) were washed three times with 300 μl of TBS-T (20 mM Tris-HCl (pH 7.4)), 150 mM NaCl, 0.1% Tween), and then 100 μl of Poly-Glu4-Tyr biotin conjugate (#12440: Upstate) which had been diluted to 1 μg/ml with TBS (20 mM Tris-HCl (pH 7.4), 150 mM NaCl) was added to the wells. After shaking at 37° C. and 400 rpm for 90 minutes, the wells were washed with 300 μl of TBS-T three times and a measuring plate was obtained.
# (§4) The measurement sample was diluted with a kinase buffer (20 mM HEPES (pH 7.4), 25 mM MgCl2, 1.25 mM MnCl2, 250 μM Na3VO4, 12.5 (w/v) % glycerol) so as to adjust the protein concentration to 6.25 μg/ml. The diluted measurement sample was transferred to wells of a 96 well V bottom plate. A DMSO solution (inhibitor concentration: 5 mM) containing one type of tyrosine kinase inhibitors (Inhibitors 1 to 10 shown in Table 6) was added to the wells at a ratio of 1:160 based on the diluted measurement sample solution, followed by mixing thereof. As the control, DMSO was added to the diluted measurement sample at the same ratio as the solution of the inhibitor. The used tyrosine kinase inhibitors are represented as Inhibitors 1 to 10 in Table 6.
# (§5) After addition of the inhibitors, a mixed solution of the measurement sample and the inhibitor was allowed to stand at room temperature for 10 minutes. 40 μl of the mixed solution was transferred to wells of the measuring plate and 10 μl of an ATP solution (20 mM HEPES (pH 7.4), […]) as the phosphate group donor was added to the wells.
# (§6) The composition of the solution in the wells is as follows: protein concentration: 5 μg/ml, 20 mM HEPES (pH 7.4), 20 mM MgCl2, 1 mM MnCl2, 200 μM Na3VO4, 10 (w/v) % glycerol, 25 μM ATP, 25 μM kinase inhibitor.
# (§7) After shaking the measuring plate at 37° C. and 400 rpm for 60 minutes, the solution was removed from the measuring plate, and the wells were washed with 300 μl of TBS-T three times. 100 μl of Starting Block T20 (TBS) (#37543: Pierce) as a blocking solution was added to the wells, followed by blocking at 37° C. and 400 rpm for 10 minutes. The blocking solution was removed from the measuring plate. […]
# [2] = tested on: tyrosine kinase in cell membrane fraction of UACC893; conditions: for Inhibition rate: UACC893, 25 μM kinase inhibitor, 25 μM ATP
# Protocol: as §1, §2, §3, §4, §5, §6, §7
# [3] = tested on: tyrosine kinase in cell membrane fraction of BT-20; conditions: for Inhibition rate: 25 μM kinase inhibitor, 25 μM ATP
# Protocol: as §1, §2, §3, §4, §5, §6, §7
# [4] = tested on: tyrosine kinase in cell membrane fraction of MDA-MB-435S; conditions: for Inhibition rate: 25 μM kinase inhibitor, 25 μM ATP
# Protocol: as §1, §2, §3, §4, §5, §6, §7
# [5] = tested on: tyrosine kinase in cell membrane fraction of AU565; conditions: for Inhibition rate: 25 μM kinase inhibitor, 25 μM ATP
# Protocol: as §1, §2, §3, §4, §5, §6, §7
# [6] = tested on: tyrosine kinase in cell membrane fraction of MCF7; conditions: for Inhibition rate: 25 μM kinase inhibitor, 25 μM ATP
# Protocol: as §1, §2, §3, §4, §5, §6, §7
# [7] = tested on: tyrosine kinase in cell membrane fraction of HCC1428; conditions: for Inhibition rate: 25 μM kinase inhibitor, 25 μM ATP
# Protocol: as §1, §2, §3, §4, §5, §6, §7
# [8] = tested on: tyrosine kinase in cell membrane fraction of ZR-75-1; conditions: for Inhibition rate: 25 μM kinase inhibitor, 25 μM ATP
# Protocol: as §1, §2, §3, §4, §5, §6, §7
# [9] = tested on: tyrosine kinase in cell membrane fraction of SK-BR-3; conditions: for Inhibition rate: 25 μM kinase inhibitor, 25 μM ATP
# Protocol: as §1, §2, §3, §4, §5, §6, §7
# [10] = tested on: tyrosine kinase in cell membrane fraction of HS578T; conditions: for Inhibition rate: 25 μM kinase inhibitor, 25 μM ATP
# Protocol: as §1, §2, §3, §4, §5, §6, §7
# [11] = tested on: tyrosine kinase in cell membrane fraction of BT-549; conditions: for Inhibition rate: 25 μM kinase inhibitor, 25 μM ATP
# Protocol: as §1, §2, §3, §4, §5, §6, §7
# [12] = tested on: tyrosine kinase in cell membrane fraction of MDA-MB-453; conditions: for Inhibition rate: 25 μM kinase inhibitor, 25 μM ATP
# Protocol: as §1, §2, §3, §4, §5, §6, §7
# [13] = tested on: tyrosine kinase in cell membrane fraction of BT-474; conditions: for Inhibition rate: 25 μM kinase inhibitor, 25 μM ATP
# Protocol: as §1, §2, §3, §4, §5, §6, §7
# [14] = tested on: tyrosine kinase in cell membrane fraction of MDA-MB-468; conditions: for Inhibition rate: 25 μM kinase inhibitor, 25 μM ATP
# Protocol: as §1, §2, §3, §4, §5, §6, §7
# [15] = tested on: tyrosine kinase in cell membrane fraction of CAMA-1; conditions: for Inhibition rate: 25 μM kinase inhibitor, 25 μM ATP
# Protocol: as §1, §2, §3, §4, §5, §6, §7
# [16] = tested on: tyrosine kinase in cell membrane fraction of HCC1806; conditions: for Inhibition rate: 25 μM kinase inhibitor, 25 μM ATP
# Protocol: as §1, §2, §3, §4, §5, §6, §7
Compound,Inhibition rate [1],Inhibition rate [2],Inhibition rate [3],Inhibition rate [4],Inhibition rate [5],Inhibition rate [6],Inhibition rate [7],Inhibition rate [8],Inhibition rate [9],Inhibition rate [10],Inhibition rate [11],Inhibition rate [12],Inhibition rate [13],Inhibition rate [14],Inhibition rate [15],Inhibition rate [16],further results
Cc1[nH]c(/C=C2\C(=O)Nc3ccc(S(=O)(=O)N(C)c4cccc(Cl)c4)cc32)c(C)c1C(=O)N1CCN(C)CC1 [Inhibitor 9],78.1%,56.9%,51.4%,80.3%,55.6%,64.3%,47.5%,53.9%,66.1%,70.6%,81.4%,64.4%,54.6%,65.0%,60.2%,77.3%,–
"COc1cc2ncnc(Nc3ccc(Oc4ccccc4)cc3)c2cc1OC [Inhibitor 10, 4-(4′-phenoxyanilino)-6,7-dimethoxyquinazoline]",81.5%,25.6%,56.6%,44.9%,36.8%,49.2%,43.7%,55.8%,43.3%,58.2%,60.6%,16.3%,37.6%,81.0%,34.6%,67.1%,Example 1 Inhibitory capacity of Src inhibitor ([1]; UACC-812): high (the term “high” means a cell line whose inhibition rate of the Src inhibitor is more than the threshold value); Example 1 Inhibitory capacity of Src inhibitor ([2]; UACC-893): low (the term “low” means a cell line whose inhibition rate of the Src inhibitor is lower than the threshold value (=43.4%)); Example 1 Inhibitory capacity of Src inhibitor [3]: high (the term “high” means a cell line whose inhibition rate of the Src inhibitor is more than the threshold value); Example 1 Inhibitory capacity of Src inhibitor [4]: high (the term “high” means a cell line whose inhibition rate of the Src inhibitor is more than the threshold value); Example 1 Inhibitory capacity of Src inhibitor [5]: low (the term “low” means a cell line whose inhibition rate of the Src inhibitor is lower than the threshold value (=43.4%)); Example 1 Inhibitory capacity of Src inhibitor [6]: high (the term “high” means a cell line whose inhibition rate of the Src inhibitor is more than the threshold value); Example 1 Inhibitory capacity of Src inhibitor [7]: high (the term “high” means a cell line whose inhibition rate of the Src inhibitor is more than the threshold value); Example 1 Inhibitory capacity of Src inhibitor [8]: high (the term “high” means a cell line whose inhibition rate of the Src inhibitor is more than the threshold value); Example 1 Inhibitory capacity of Src inhibitor [9]: low (the term “low” means a cell line whose inhibition rate of the Src inhibitor is lower than the threshold value (=43.4%)); Example 1 Inhibitory capacity of Src inhibitor [10]: high (the term “high” means a cell line whose inhibition rate of the Src inhibitor is more than the threshold value); Example 1 Inhibitory capacity of Src inhibitor [11]: high (the term “high” means a cell line whose inhibition rate of the Src inhibitor is more than the threshold value); Example 1 Inhibitory capacity of Src inhibitor [12]: low (the term “low” means a cell line whose inhibition rate of the Src inhibitor is lower than the threshold value (=43.4%)); Example 1 Inhibitory capacity of Src inhibitor [13]: low (the term “low” means a cell line whose inhibition rate of the Src inhibitor is lower than the threshold value (=43.4%)); Example 1 Inhibitory capacity of Src inhibitor [14]: high (the term “high” means a cell line whose inhibition rate of the Src inhibitor is more than the threshold value); Example 1 Inhibitory capacity of Src inhibitor [15]: low (the term “low” means a cell line whose inhibition rate of the Src inhibitor is lower than the threshold value (=43.4%)); Example 1 Inhibitory capacity of Src inhibitor [16]: high (the term “high” means a cell line whose inhibition rate of the Src inhibitor is more than the threshold value)
